Measured values taken from patent US5624924A, “Quinobenzothiazine antineoplastic agents” (priority 1994, dated 1997).
Values after ≈ are worked out from the molar mass of the structure shown. Structures can show the parent of a compound that is named as a salt. Where two headings read alike, the source gives them in different places.

Experiments:
[1] = test system: HT-29 human colon cancer cell line; test: In vitro cytotoxicity (MTT), HT-29; type: cell-based; details: HT-29, 72 h
Experimental: (§1) Metabolic activity was measured by the cells' ability to reduce the tetrazolium dye, 3-(4,5-dimethylthiazol-2-yl)-2,5-diphenyltetrazolium bromide (MTT), to a quantifiable colored formasan derivative. Surviving cells reduce the MTT dye. The inhibitory concentrations of killing 50% of the cells (IC50 s) were calculated. Testing was in accord with the following protocol:
(§2) Test compounds and a reference antineoplastic agent, ADRIAMYCIN (doxorubicin hydrochloride), were dissolved in dimethyl sulfoxide (DMSO) and diluted, first with Earle's Balanced Salt Solution, followed by culture medium, to twice the highest concentration of the compound to be tested. From this concentrated stock, two-fold serial dilutions were prepared in 96-well microtiter trays, each well containing twice the desired final concentration of the compound. Each concentration was tested in triplicate and compared to triplicate drug-free controls.
(§3) The cells were grown in the same medium used for diluting the compounds. Adherent cells were harvested by trypsinization according to the following procedure:
(§4) After harvesting by trypsinization, viable cell counts were determined and cell density was adjusted to 25,000 cells/mL. Inoculum (0.1 mL) was then added to each well for a final concentration of 2,500 cells per well. Addition of the inoculum was used to dilute the test compounds to the desired concentration.
(§5) Microtiter trays were incubated for three days at 36° C. in a humidified atmosphere containing 5% carbon dioxide.
(§6) After three days, 20 microliters of 5 mg/mL MTT in phosphate-buffered solution were added to each well of the microtiter trays. The microtiter trays were then returned to the incubator for two to four hours to allow the surviving cells to reduce the dye. After this incubation, both the medium and the unreduced dye were removed by aspiration. DMSO was added to each well to dissolve the water-insoluble, colored end product of the dye reduction for spectrophotometric measurement at 570 nm.
(§7) The results obtained which clearly show the cytotoxicity of the compounds of Examples 5, 6, 7 and 8 against […] tumor cell lines A549, HCT-8, HT-29 and P388-D1, are illustrated in Table 1. (A549 is a human lung cancer cell line; HCT-8 is a human colon cancer cell line; HT-29 is a human colon cancer cell line; and P388-D1 is a mouse leukemia cell line.)

Lewis lung carcinoma = test: In vivo activity against Lewis lung carcinoma (subcutaneous); design: species or system mouse; details: IP days 1-9, tumor weight day 14
Experimental: Compound A and the compound of Example 8 were also tested against solid tumors, namely Lewis lung carcinoma on the one hand and C-26 colon adenocarcinoma and M5076 ovadan sarcoma on the other. Lewis lung carcinoma was inoculated subcutaneously to flanks of mice on day 0. The compound being tested (Compound A) was administered intraperitoneally (IP) from day 1 to day 9 for a total of nine injections. Tumor weights were measured on day 14 and drug efficacy assessed based on reduction of mean tumor mass (MTM), expressed as the percent ratio of treated (T) to control (C) MTM's. Compounds having % MTM(T/C) values of less than or equal to 40 are considered to have significant activity. These values are shown below in Table 4.

[2] = test system: P388-ADR(0.0), ADRIAMYCIN-resistant variant of P388; test: In vitro cytotoxicity (MTT), P388-ADR(0.0); type: cell-based; details: Mus musculus, 72 h, inoculum grown in drug-free medium, Table 2
Experimental: as §1, §2, §3, §4, §5, §6
(§8) Compounds from Examples 4, 6, 8, 9 and 10 were additionally tested against human and murine tumor cell lines A549, HT-29, P388-D1, P388, P388-ADR(0.0), P388-ADR(0.1) and B16F109. (P388 is a mouse leukemia cell line similar to P388-D1, but animal-passaged; P388-ADR (0.0) is an ADRIAMYCIN-resistant variant of P388, the inoculum of which is grown in drug-free medium; P388-ADR (0.1) is an ADRIAMYCIN-resistant variant of P388, the inoculum of which is grown in medium with 0.1 mcg.ml ADRIAMYCIN; and B16F10 is a mouse melanoma.) The results are presented in Table 2; as shown in the table, the compounds of the present invention are effective cytotoxic agents even against the ADRIAMYCIN-resistant cell line P388-ADR.

Aqueous solubility = type: physicochemical; details: water
From the text: The effect of peptidyl substitution on the solubility of the compounds of the invention was examined by dissolving samples thereof in water.

[3] = test system: P388 mouse leukemia cell line; test: In vitro cytotoxicity (MTT), P388; type: cell-based; details: P388, 72 h, read-out: In Vitro Cytotoxicity (IC50)
Experimental: as §1, §2, §3, §4, §5, §6, §8

[4] = test system: A549 human lung cancer cell line; test: In vitro cytotoxicity (MTT), A549; type: cell-based; details: A549, 72 h
Experimental: as §1, §2, §3, §4, §5, §6, §7

P388 ascitic leukemia = test: In vivo activity against systemic tumor P388; design: species or system mouse; details: five days
Experimental: Prior to testing, P388 was propagated intraperitoneally in female DBA2 mice. The ascitic tumors were intraperitoneally injected in female B6 D2 F1 mice at a concentration of 10^6 cells per mouse. The mice were treated with antiumor agents administered once daily for five consecutive days, with the antineoplastic 5-fluorouracil used as a positive control.
All drugs were administered intraperitoneally in 5% aqueous dextrose or other suitable diluent. Drug efficacy was evaluated based on prolongation of mean survival time (MST). Improvement of MST was calculated as % MST(T/C), the percent ratio of mean survival times of test (T) versus control (C) mice. Compounds having % MST(T/C) values greater than 125 are considered to have significant activity. The antitumor activity of the two compounds in the P388 systemic leukemia model is illustrated in Table 3 below.

B16F10 mouse melanoma = test: In vitro cytotoxicity (MTT), B16F10; type: cell-based; details: B16-F10, 72 h, read-out: In Vitro Cytotoxicity (IC50)
Experimental: as §1, §2, §3, §4, §5, §6, §8

[5] = test system: P388-D1 mouse leukemia cell line; test: In vitro cytotoxicity (MTT), P388-D1; type: cell-based; details: Mus musculus, P388D1, 72 h, read-out: In Vitro Cytotoxicity (IC50), P388-D1
Experimental: as §1, §2, §3, §4, §5, §6, §7

[6] = test system: P388-ADR(0.1), ADRIAMYCIN-resistant variant of P388; test: In vitro cytotoxicity (MTT), P388-ADR(0.1); type: cell-based; details: Mus musculus, 72 h, inoculum grown with 0.1 mcg.ml ADRIAMYCIN, Table 2, ADR value marked *: single test
Experimental: as §1, §2, §3, §4, §5
as §6, with “nm. […]” for “nm.”

[7] = read-out: In Vitro Cytotoxicity (IC50), HT-29, Table 2, ADR: average of two tests
[8] = read-out: In Vitro Cytotoxicity (IC50), A549, Table 2, ADR: average of two tests

Structure (SMILES) | IC50 [1, 7] | Lewis Lung % MTM(T/C) (Lewis lung carcinoma; dose 6.25) | Lewis Lung % MTM(T/C) (Lewis lung carcinoma; dose 12.5) | Lewis Lung % MTM(T/C) (Lewis lung carcinoma; dose 25) | Lewis Lung % MTM(T/C) (Lewis lung carcinoma; dose 50) | IC50 [2] | solubility (Aqueous solubility) | IC50 [3] | IC50 [4, 8] | % MST(T/C) (P388 ascitic leukemia; 6.25 mg/kg IP once daily) | % MST(T/C) (P388 ascitic leukemia; 12.5 mg/kg IP once daily) | % MST(T/C) (P388 ascitic leukemia; 25 mg/kg IP once daily) | % MST(T/C) (P388 ascitic leukemia; 50 mg/kg IP once daily) | IC50 (B16F10 mouse melanoma) | IC50 ([5]; Table 1, three day MTT assay) | IC50 ([5]; Table 2, ADR value marked *: single test) | IC50 ([1]; read-out: In Vitro Cytotoxicity (IC50), HT-29, Table 1, three day MTT assay) | IC50 ([4]; read-out: In Vitro Cytotoxicity (IC50), A549, Table 1, three day MTT assay) | IC50 [6]
NC1CCN(c2c(F)cc3c(=O)c(C(=O)O)cn4c3c2Oc2ccccc2-4)C1 (stereo not drawn) [Compound A, 1-(3-aminopyrrolidin-1-yl)-2-fluoro-4-oxo-4H-[2,3,4-i,j][1,4]benzoxazine-5-carboxylic acid] | 0.1 µg/mL (≈ 0.262 µM) | 68% | 67% | 47% | 41% | 0.12 µg/mL (≈ 0.315 µM) | 8800 µg/mL (≈ 23100 µM) | 0.019 µg/mL (≈ 0.0498 µM) | 0.26 µg/mL (≈ 0.682 µM) | 160% | 165% | 170% | 180% | 0.021 µg/mL (≈ 0.0551 µM) | – | – | – | – | –
Cc1ccc2c(c1)Oc1c(N3CCC(N)C3)c(F)cc3c(=O)c(C(=O)O)cn-2c13 (stereo not drawn) [Example 6, 1-(3-aminopyrrolidin-1-yl)-2-fluoro-9-methyl-4-oxo-4H-quino[2,3,4-i,j][1,4]benzoxazine-5-carboxylic acid hydrochloride] | 0.076 µg/mL | – | – | – | – | 0.2 µg/mL | – | 0.071 µg/mL | 0.23 µg/mL | – | – | – | – | 0.056 µg/mL | 0.067 µg/mL | 0.08 µg/mL | 0.049 µg/mL | 0.13 µg/mL | 0.2 µg/mL
